Experimental findings from PMC3170910, “Screening of Supports for the Immobilization of β-Glucosidase” (Enzyme Research, 2011) are described below.

The test system of the assay is T1, β-glucosidase.
T1 construct: gene beta-D-glucoside glucohydrolase; not purified to one protein, isoenzyme not defined
Description: p-nitrophenol release at […] nm; nonlinear fit (Solver). The assay is classed as biochemical, Aspergillus sp. The settings on record: free enzyme, partially purified extract; acetate buffer, optimal pH (4.5) and temperature (65 °C optimum).

For `O=[N+]([O-])c1ccc(O[C@@H]2O[C@H](CO)[C@@H](O)[C@H](O)[C@H]2O)cc1` [4-Nitrophenyl-β-D-glucopyranoside], the Michaelis-Menten constant (Km) (usually the concentration of substrate that gives half-maximal velocity) was found to be 1600 µM.
